Our source for the inhibition values is US20150329558A1, “FUSED HETEROCYCLIC COMPOUNDS AS ION CHANNEL MODULATORS” (Gilead Sciences, Inc., priority 2011, published 2015).

For this experiment, the target named is wild-type human cardiac sodium channel, hNav1.5 (late INa) (Homo sapiens, UniProt Q14524). The experiment is described as follows: Late INa screening assay (QPatch whole cell patch clamp). It is filed as cell-based. As to conditions: percent block of late INa, compound at 1 μM, 10 μM Tefluthrin, HEK293 hNav1.5; read-out: Late INa 1 μM. As for the experimental part: The late sodium current (Late INa) and peak sodium current (Peak INa) assays are performed on an automated electrophysiology platform, QPatch 16× (Sophion Bioscience, Copenhagen, Denmark), which uses the whole cell patch clamp technique to measure currents through the cell membrane of up to 16 cells at a time. The assay uses an HEK293 (human embryonic kidney) cell line heterologously expressing the wild-type human cardiac sodium channel, hNav1.5, purchased from Millipore (Billerica, Mass.). No beta subunits were coexpressed with the Na channel alpha subunit. Cells are maintained with standard tissue culture procedures and stable channel expression is maintained with 400 μg/mL Geneticin in the culture medium. […] Experiments are carried out at 23-25° C. For both the Late INa and Peak INa assays, series resistance compensation is set to 100% and series resistance and whole-cell compensation are performed automatically. Currents are digitized at 25 kHz and low-pass filtered at 12 kHz and 10 kHz for the late and peak INa assays, respectively. Currents through open sodium channels are automatically recorded and stored in the Sophion Bioscience Oracle database (Sophion Bioscience, Copehagen, Denmark). Analysis is performed using QPatch Assay and database software and data are compiled in Excel. Compound stocks are routinely made by the Gilead Sample Bank in plastic vials to 10 mM in dimethyl sulfoxide (DMSO). In some cases, when compounds are not soluble in DMSO, they are made in 100% ethanol. Stocks are sonicated as necessary. […] The intracellular solution used to perfuse the inside of the cells for both the Late INa and Peak INa assays contains: 120 mM CsF, 20 mM CsCl, 5 mM EGTA, 5 mM HEPES and pH adjusted to 7.4 with CsOH. Compounds are diluted in extracellular solution to 1 μM in glass vials and then transferred to glass well plates before robotic addition to the cells. […] For the Late INa assay, sodium channels are activated every 10 seconds (0.1 Hz) by depolarizing the cell membrane to −20 mV for 250 milliseconds (ms) from a holding potential of −120 mV. In response to a −20 mV voltage step, typical hNav1.5 sodium currents activate rapidly to a peak negative current and then inactivate nearly completely within 3-4 ms. All compounds were tested to determine their activity in blocking the late sodium current. Late INa was generated by adding 10 μM Tefluthrin (pyrethroid) to the extracellular solution while recording Na currents. To confirm the block of late INa observed using the automated screening method, a second late INa enhancer (ATX-II) and the manual patch clamp method were used. ATX-II and tefluthrin occupy distinct, non-overlapping binding sites and modify Na^+ channel function differently to increase late INa. […] For the purposes of the screening, late INa is defined as the mean current between 225 ms and 250 ms after stepping to −20 mV to activate Na channels. […] Results are reported as percent block of late INa.
Chain of wild-type human cardiac sodium channel, hNav1.5 (late INa) (Q14524 whole entry): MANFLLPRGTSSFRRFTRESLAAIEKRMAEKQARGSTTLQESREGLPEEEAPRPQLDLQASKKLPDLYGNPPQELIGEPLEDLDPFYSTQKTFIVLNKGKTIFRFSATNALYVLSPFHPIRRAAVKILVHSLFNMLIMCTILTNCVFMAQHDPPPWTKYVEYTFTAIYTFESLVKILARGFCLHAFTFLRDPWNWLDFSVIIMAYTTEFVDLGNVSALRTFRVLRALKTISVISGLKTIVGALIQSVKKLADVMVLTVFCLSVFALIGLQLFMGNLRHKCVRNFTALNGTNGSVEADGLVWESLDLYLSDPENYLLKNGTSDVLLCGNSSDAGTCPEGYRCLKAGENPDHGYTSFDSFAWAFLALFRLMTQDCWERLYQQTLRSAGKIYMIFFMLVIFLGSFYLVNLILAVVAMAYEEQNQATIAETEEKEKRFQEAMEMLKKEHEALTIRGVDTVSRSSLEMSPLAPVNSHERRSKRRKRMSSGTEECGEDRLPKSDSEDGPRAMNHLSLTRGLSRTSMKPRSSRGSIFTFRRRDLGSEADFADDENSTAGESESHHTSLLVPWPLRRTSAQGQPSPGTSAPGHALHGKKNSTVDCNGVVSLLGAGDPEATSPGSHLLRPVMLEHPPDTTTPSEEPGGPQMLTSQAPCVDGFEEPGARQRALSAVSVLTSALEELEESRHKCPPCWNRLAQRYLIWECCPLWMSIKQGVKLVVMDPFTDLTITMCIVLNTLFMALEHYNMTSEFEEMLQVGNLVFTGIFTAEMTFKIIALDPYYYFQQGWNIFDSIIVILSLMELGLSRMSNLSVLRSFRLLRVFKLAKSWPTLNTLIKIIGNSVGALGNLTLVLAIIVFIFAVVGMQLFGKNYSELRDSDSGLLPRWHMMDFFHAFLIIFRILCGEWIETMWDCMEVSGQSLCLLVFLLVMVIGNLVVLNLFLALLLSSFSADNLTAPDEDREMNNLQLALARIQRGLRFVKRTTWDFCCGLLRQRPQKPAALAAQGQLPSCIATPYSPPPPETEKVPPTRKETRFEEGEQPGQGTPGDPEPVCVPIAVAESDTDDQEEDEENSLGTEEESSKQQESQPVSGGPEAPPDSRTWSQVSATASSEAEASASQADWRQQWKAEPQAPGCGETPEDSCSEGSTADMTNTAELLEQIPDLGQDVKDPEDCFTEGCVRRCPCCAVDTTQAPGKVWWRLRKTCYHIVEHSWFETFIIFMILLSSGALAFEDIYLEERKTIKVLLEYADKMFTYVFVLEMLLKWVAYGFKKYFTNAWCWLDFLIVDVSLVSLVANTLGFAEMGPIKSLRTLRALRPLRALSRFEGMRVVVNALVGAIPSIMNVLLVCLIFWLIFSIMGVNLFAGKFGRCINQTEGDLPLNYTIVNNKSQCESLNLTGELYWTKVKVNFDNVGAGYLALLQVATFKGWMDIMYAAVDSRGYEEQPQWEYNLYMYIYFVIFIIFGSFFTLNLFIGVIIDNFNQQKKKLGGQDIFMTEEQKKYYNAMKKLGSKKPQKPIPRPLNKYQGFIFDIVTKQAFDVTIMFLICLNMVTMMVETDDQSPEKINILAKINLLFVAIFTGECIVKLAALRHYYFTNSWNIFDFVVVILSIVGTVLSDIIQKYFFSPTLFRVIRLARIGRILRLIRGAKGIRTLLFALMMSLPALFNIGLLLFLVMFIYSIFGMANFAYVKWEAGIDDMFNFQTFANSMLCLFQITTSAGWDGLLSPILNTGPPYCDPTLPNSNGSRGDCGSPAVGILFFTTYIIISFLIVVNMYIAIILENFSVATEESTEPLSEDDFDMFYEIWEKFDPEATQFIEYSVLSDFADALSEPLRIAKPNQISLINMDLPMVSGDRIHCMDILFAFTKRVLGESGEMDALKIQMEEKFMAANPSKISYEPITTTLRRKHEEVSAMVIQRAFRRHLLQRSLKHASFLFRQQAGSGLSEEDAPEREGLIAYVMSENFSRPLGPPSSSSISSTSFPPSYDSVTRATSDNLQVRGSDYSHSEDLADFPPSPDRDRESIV
In the case of `Cc1nn(C)cc1C(=O)N1CCc2ccc(-c3ccc(C(F)(F)F)cc3)cc2C1` [IX-28, (1,3-dimethyl-1H-pyrazol-4-yl)(7-(4-(trifluoromethyl)phenyl)-3,4-dihydroisoquinolin-2(1H)-yl)methanone], the inhibition at 1 µM amounted to 24%.

`O=C(Cc1ncccn1)N1CCc2ccc(-c3ccc(C(F)(F)F)cc3)cc2C1` [IX-30, 2-(pyrimidin-2-yl)-1-(7-(4-(trifluoromethyl)phenyl)-3,4-dihydroisoquinolin-2(1H)-yl)ethanone]: the inhibition at 1 µM turned out to be 20%.

Consider `CC(C)c1nccc(C(=O)N2CCc3ccc(-c4ccc(C(F)(F)F)cc4)cc3C2)n1` [IX-31, (2-isopropylpyrimidin-4-yl)(7-(4-(trifluoromethyl)phenyl)-3,4-dihydroisoquinolin-2(1H)-yl)methanone], for which the inhibition at 1 µM came to 25%.

`O=C(c1ccncn1)N1CCc2ccc(-c3ccc(C(F)(F)F)cc3)cc2C1` [IX-32, pyrimidin-4-yl(7-(4-(trifluoromethyl)phenyl)-3,4-dihydroisoquinolin-2(1H)-yl)methanone]: the inhibition at 1 µM is 29%.

In the case of `O=C(c1cncnc1)N1CCc2ccc(-c3ccc(C(F)(F)F)cc3)cc2C1` [IX-33, pyrimidin-5-yl(7-(4-(trifluoromethyl)phenyl)-3,4-dihydroisoquinolin-2(1H)-yl)methanone], the inhibition at 1 µM is 21%.

With `Cc1cc(C(=O)N2CCc3ccc(-c4ccc(C(F)(F)F)cc4)cc3C2)nc(N)n1` [IX-34, (2-amino-6-methylpyrimidin-4-yl)(7-(4-(trifluoromethyl)phenyl)-3,4-dihydroisoquinolin-2(1H)-yl)methanone], the inhibition at 1 µM was found to be 16%.

For `O=C(c1ccn[nH]1)N1CCc2ccc(-c3ccc(C(F)(F)F)cc3)cc2C1` [IX-36, (1H-pyrazol-5-yl)(7-(4-(trifluoromethyl)phenyl)-3,4-dihydroisoquinolin-2(1H)-yl)methanone], the inhibition at 1 µM turned out to be 20%.

`O=C(NCc1ccccc1)N1CCc2ccc(-c3ccc(C(F)(F)F)cc3)cc2C1` [IX-41, N-benzyl-7-(4-(trifluoromethyl)phenyl)-3,4-dihydroisoquinoline-2(1H)-carboxamide]: the inhibition at 1 µM is 27%.

`O=C(Nc1ccccc1)N1CCc2ccc(-c3ccc(C(F)(F)F)cc3)cc2C1` [IX-42, N-phenyl-7-(4-(trifluoromethyl)phenyl)-3,4-dihydroisoquinoline-2(1H)-carboxamide]: the inhibition at 1 µM was found to be 25%.

Consider `O=C(NC1CC1)N1CCc2ccc(-c3ccc(C(F)(F)F)cc3)cc2C1` [IX-44, N-cyclopropyl-7-(4-(trifluoromethyl)phenyl)-3,4-dihydroisoquinoline-2(1H)-carboxamide], for which the inhibition at 1 µM is 27%.

For the molecule `O=C(N1CCOCC1)N1CCc2ccc(-c3ccc(C(F)(F)F)cc3)cc2C1` [IX-52, morpholino(7-(4-(trifluoromethyl)phenyl)-3,4-dihydroisoquinolin-2(1H)-yl)methanone], the inhibition at 1 µM is 26%.

Regarding `Cn1cncc1C(=O)N1CCc2ccc(-c3ccc(C(F)(F)F)cc3)cc2C1` [IX-56, (1-methyl-1H-imidazol-5-yl)(7-(4-(trifluoromethyl)phenyl)-3,4-dihydroisoquinolin-2(1H)-yl)methanone], the inhibition at 1 µM was determined as 28%.

Take `O=C(c1[nH]cnc1F)N1CCc2ccc(-c3ccc(C(F)(F)F)cc3)cc2C1` [IX-59, (4-fluoro-1H-imidazol-5-yl)(7-(4-(trifluoromethyl)phenyl)-3,4-dihydroisoquinolin-2(1H)-yl)methanone]: the inhibition at 1 µM came out at 17%.

In the case of `O=C(NC1CCCC1)N1CCc2ccc(-c3ccc(C(F)(F)F)cc3)cc2C1` [IX-77, N-cyclopentyl-7-(4-(trifluoromethyl)phenyl)-3,4-dihydroisoquinoline-2(1H)-carboxamide], the inhibition at 1 µM was 22%.

`O=C(N1CCC1)N1CCc2ccc(-c3ccc(C(F)(F)F)cc3)cc2C1` [IX-88, azetidin-1-yl(7-(4-(trifluoromethyl)phenyl)-3,4-dihydroisoquinolin-2(1H)-yl)methanone]: the inhibition at 1 µM turned out to be 25%.
